Test results taken from patent US12016860B2, “Combination therapies with Cbl-b inhibitor compounds” (Nurix Therapeutics, Inc., priority 2021, dated 2024).

Columns and labels:
BT549 tumor cell line = assay: Caspase 3/7 apoptosis Incucyte assay with paclitaxel, BT549; assay type: cell-based; settings: 0.1 μM compound 23, 0.002 μM paclitaxel, vs 0.05% DMSO, combination also vs single agents p<0.0001
Description: (§1) BT549 cells were seeded in duplicate into tissue culture treated black-sided, clear-bottom 96-well plates at 5,000 ^cells/well and allowed to adhere and establish for 24 h. Cells were treated with DMSO, compound 23, or Paclitaxel either alone or in combination and were labelled with 1× Essen Bioscience IncuCyte® Caspase-3/7 Green Reagent (final concentration 5 μM). Treated plates were imaged every 2 hours for 48 hours with the IncuCyte® S3 Live-Cell Analysis System. At each timepoint, one image per well was taken in both brightfield and FITC channels on the IncuCyte® S3 Live-Cell Analysis System. Images were analyzed for number of green objects per mm^2 using the IncuCyte S3 v2017A software.
Using a caspase 3/7 apoptosis Incucyte® assay, the effect of compound 23, paclitaxel and the combination of compound 23 and paclitaxel on tumor cell apoptosis was assessed in the BT549 tumor cell line (a mammary gland carcinoma) in vitro.

CT26 tumors = assay: nCounter Mouse PanCancer Immune Profiling of CT26 tumors from treated mice; assay type: in vivo
Description: In this example, the gene expression changes induced in tumors from mice treated with compound 23 studies were investigated. To perform this assessment, the nCounter PanCancer Immune Profiling Panel was used, which is a multiplexed gene expression panel developed by NanoString Technologies that measures expression of 770 immune and cancer related genes (Eastel et al., 2019, Expert Review of Molecular Diagnostics, 19(7):591-598). This technology is a unique gene expression tool that covers many important features of the immune response in the tumor microenvironment and was used to facilitate the understanding of immune related changes in tumors treated with compound 23.
In FIG. 4A, CT26 tumors were harvested after 4 doses and after 19 doses of compound 23 or vehicle and gene expression was directly measured using the nCounter Mouse PanCancer Immune Profiling Panel. Analysis was performed using the nSolver 4.0 and the nCounter Advanced Analysis software comparing gene expression in compound 23 to vehicle treated tumors. […] Statistical significance of differences in mean cell type scores between compound 23 and vehicle treated groups was evaluated using Mann-Whitney test (*P≤0.05, **P≤0.01, and ***P≤0.001).
(§2) In FIG. 4B, CT26 tumors were harvested after 4 treatment doses and gene expression was directly measured using the nCounter Mouse PanCancer Immune Profiling Panel. Analysis was performed using the nSolver 4.0 and the nCounter Advanced Analysis software comparing gene expression in compound 23 to vehicle treated tumors. As indicated in the titles above each panel, scatter plots of individual Pathway Signature Scores of vehicle and compound 23 treated tumors are shown. Statistical significance of differences in Pathway Signature Scores between compound 23 and vehicle treated groups was evaluated using Mann-Whitney test (*P≤0.05, **P≤0.01, and ***P≤0.001).
as §2, with “FIG. 4C,” for “FIG. 4B,”, “after 19” for “after 4”

[1] = system: DoTc 4510 (BRCA2 mutated) cells; assay: Caspase 3/7 apoptosis Incucyte assay with olaparib, DoTc 4510; assay type: cell-based; settings: vs 0.05% DMSO, combination also vs single agents p<0.0001
Description: as §1, with “BT549 (BRCA wild type) (A) and DoTc 4510 (BRCA2 mutated) (B) cells were” for “BT549 cells were”, “plates at 5,000^cells/well and allowed” for “plates at 5,000 ^cells/well and allowed”, “treated with indicated concentrations of DMSO, compound” for “treated with DMSO, compound”, “23, or Olaparib (FIGS. 13A and 13B) either alone” for “23, or Paclitaxel either alone”, “hours for 72 hours with” for “hours for 48 hours with”

[2] = system: total primary human T-cells; assay: IL-2 and IFN-γ release (ELISA) from stimulated primary human T-cells; assay type: cell-based; settings: primary human T-cells stimulated with anti-CD3, with and without CD28 co-stimulation; lesser degree without co-stimulation
Description: Cells were stimulated with plate bound anti-CD3 (right) or anti-CD3/anti-CD28 (left) in the presence or absence of the indicated concentration of compound 23. Release of IL-2 or IFN-γ were assessed by ELISA. Compound 23 inhibition of Cbl-b enhanced IL-2 and IFN-γ secretion in primary human T-cells stimulated with anti-CD3 antibodies, in both the presence and absence of CD28 co-stimulation, although to a lesser degree in the absence of co-stimulation.

In the case of `C[C@H]1CCCN(Cc2cc3c(c(C(F)(F)F)c2)CN(c2cccc([C@]4(c5nncn5C)C[C@@H](C)C4)c2)C3=O)C1` [compound 23], the “tumor cell apoptosis (caspase 3/7)” value (BT549 tumor cell line) is reported as “did not undergo a significant increase in apoptosis”, the “T-cell, B cell, NK cell and adaptive immune function pathway scores” value (CT26 tumors; after 4 doses) is reported as “not significant” and the “gene expression in innate immune signaling pathways (dendritic cell function, macrophage function, chemokine receptors and pathways)” value (CT26 tumors; after 4 doses) is reported as “significant gene expression changes”. For the same compound, the “cytotoxic cell infiltration score” value (CT26 tumors; after 4 doses, 30 mg/kg daily PO, vs vehicle, P=0.1061) was “clear trend of increased infiltration”, the “infiltration of tumor infiltrating lymphocytes (TIL) score” value (CT26 tumors; after 4 doses, 30 mg/kg daily PO, vs vehicle, P=0.6679) was “clear trend of increased infiltration” and the T-cell infiltration score (CT26 tumors; after 4 doses, 30 mg/kg daily PO, vs vehicle, P=0.7551) was “clear trend of increased infiltration”. For the same compound, the “immune related pathway scores” value (CT26 tumors; after 19 doses) was “significantly enhanced function”, the “cytotoxic cell infiltration score” value (CT26 tumors; after 19 doses PO, vs vehicle, P=0.0002) was “significant increases” and the TIL infiltration score (CT26 tumors; after 19 doses PO, vs vehicle, P=0.0044) was “significant increases”. For the same compound, the T-cell infiltration score (CT26 tumors; after 19 doses PO, vs vehicle, P=0.0098) was “significant increases”, the “tumor cell apoptosis (caspase 3/7)” value [1] was “did not significantly increase tumor cell apoptosis” and the IFN-γ secretion [2] was “enhanced”. For the same compound, the IL-2 secretion [2] was “enhanced”.
